# Experimental data taken from patent US20250296942A1, “Phosphonate-Based Coordination Complexes and Methods of Preparation and Use Thereof” (University of Puerto Rico, priority 2021, published 2025).
# Where two headings read alike, the source gives them in different places.
# Legend:
# [1] = PBS pH 7.40
# [2] = tested on: human breast cancer MDA-MB-231 cell line; experiment: AlamarBlue cytotoxicity, RISE and nano-Ca@RISE, MDA-MB-231; assay type: cell-based; conditions: for viability at 35 µM / viability at 40 µM / viability at 45 µM / viability at 50 µM / IC50: Homo sapiens; for viability at 35 µM / viability at 40 µM / viability at 45 µM / viability at 50 µM: read-out: Relative cell viability (% RCL), MDA-MB-231
# Description: Cell culture methods. The MDA-MB-231 cell line was incubated with DMEM, 1% Pen-Strep, and 10% FBS at 37° C. in 5% CO2. The hFOB 1.19 cell line was incubated with 1:1 DMEM:F-12, 0.3 mg/mL G418, and 10% FBS at 34° C. in 5% CO2. Cell passages were performed weekly at 80% of cell confluency, media was exchanged twice a week.
# Cell treatments. Both cell lines were treated with RISE (control) and nano-Ca@RISE (experimental). […]. Both cell lines (MDA-MB-231 and hFOB 1.19) were seeded in 96 well plates at 2.5×10^5 cell/mL. The cells were incubated for 24 h at 37° C. (MDA-MB-231) and 34° C. (hFOB 1.19), respectively. After the initial incubation period, both cell lines were treated with 100 μL of the RISE solutions previously prepared, and incubation was performed for 24, 48, and 72 h at the respective incubation temperatures. For both cell lines, media (MDA-MB-231: DMEM, Pen-Strep) and (hFOB 1.19: DMEM, F-12, G418) were used with control groups. AlamarBlue® assay was utilized to determine cell proliferation, for this, 10% of AlamarBlue® solution in PBS was prepared. Finally, the media was removed from the 96 well plates, 100 μL of 10% AlamarBlue® solution was added, and the cells were incubated for 4 h at the same previously mentioned conditions. After the AlamarBlue® assay, the fluorescence (λexc=560 nm, λem=590 nm) was evaluated employing an Infinite M200 PRO Tecan Microplate Reader. […]. The nonlinear regression method using Graph Pad Prism 8 was applied to fit the dose-response curves (% cell live vs concentration) and determined the IC50 values for RISE.
# […]. Treatments at these concentrations were carried out at 24, 48, and 72 h for RISE and nano-Ca@RISE. The cell seeding and AlamarBlue® assay were completed as described above for the IC50 determination in both cell lines. […]. All experiments were performed in triplicates and the data was statistically treated using mean, standard deviation, and the coefficient of variation percentage (% CV).
# Cell culture methods for the MDA-MB-231 cell line. This cell line was grown in Dulbecco's Modified Eagle's Medium (DMEM) supplemented with 10% fetal bovine serum (FBS) and 1% penicillin-streptomycin (Pen-Strep), incubated at 37° C. and 5% CO2. Cell passage and cell treatment were performed at 80% of cell confluency. The completed growth media was exchanged every two days.
# Cell seeding. The MDA-MB-231 and hFOB 1.19 cell lines were seeded in 96 well plates at a density of 2.5×10^5 cells/mL, incubation was carried out for 24 h at 37° C. for MDA-MB-231 and 34° C. for osteoblast hFOB 1.19, in 5% CO2. The experiments were conducted in triplicates, three 96 well plates were made for each treatment period (24, 48, and 72 h).
# Cell treatment. To determine the half-maximal inhibitory concentration (IC50), for both cell lines, two-fold serial dilutions of RISE (0-200 μM) were prepared. To assess the relative cell live (% RCL) were employed selected […] (50, 45, 40, and 35 μM) of RISE and nano-Ca@RISE for MDA-MB-231 and hFOB 1.19 cell lines. For this, after the seeding, 100 μL of RISE and nano-Ca@RISE were used to treat the cells. The control groups were treated with just media. Both cell lines were incubated for 24, 48, and 72 h after RISE and nano-Ca@RISE solutions were added.
# AlamarBlue@assay. For both cell lines, after the 24, 48, and 72 h of treatment, the media was removed from the 96 well plates. Subsequently, 100 μL of 10% AlamarBlue® solution was added and incubation was carried out for 4 h. The fluorescence (λexc=570 nm, λem=590 nm) was measured employing an Infinite M200 PRO Tecan Microplate Reader. […]. The IC50 curves and the % RCL values were plotted using the Graph Pad Prism 8 program.
compound,measurement,setting,value
"O=P(O)(O)C(O)(Cc1cccnc1)P(=O)(O)O [RISE, Monosodium risedronate hemipentahydrate]",time to reach maximum dissolution,[1],30 min
same,viability at 35 µM,"[2]; MDA-MB-231, 24 h, 35 μM, 24 h",101 ± 2%
same,viability at 40 µM,"[2]; MDA-MB-231, 24 h, 40 μM, 24 h",100 ± 2%
same,viability at 45 µM,"[2]; MDA-MB-231, 24 h, 24 h",100 ± 2%
same,viability at 50 µM,"[2]; MDA-MB-231, 24 h, 24 h",99 ± 2%
same,viability at 35 µM,"[2]; MDA-MB-231, 48 h, 35 μM, 48 h",100 ± 2%
same,viability at 40 µM,"[2]; MDA-MB-231, 48 h, 40 μM, 48 h",100 ± 3%
same,viability at 45 µM,"[2]; MDA-MB-231, 48 h, 48 h",98 ± 2%
same,viability at 50 µM,"[2]; MDA-MB-231, 48 h, 48 h",97 ± 3%
same,viability at 35 µM,"[2]; MDA-MB-231, 72 h, 35 μM, 72 h",~100%
same,viability at 40 µM,"[2]; MDA-MB-231, 72 h, 40 μM, 72 h",94 ± 1%
same,viability at 45 µM,"[2]; MDA-MB-231, 72 h, 72 h",94 ± 2%
same,viability at 50 µM,"[2]; MDA-MB-231, 72 h, 72 h",93 ± 2%
same,IC50,"[2]; MDA-MB-231, 24 h",> 200 µM
same,IC50,"[2]; MDA-MB-231, 48 h",175 ± 3 µM
same,IC50,"[2]; MDA-MB-231, 72 h",98 ± 3 µM
same,Relative cell viability (% RCL),"[2]; MDA-MB-231, 35 μM, 72 h",96 ± 2%
same,% RCL,"[2]; MDA-MB-231, 40 μM, time not stated",~100%
